# Reference: patent US20240024403A1, “Compositions and Methods for Managing Weight” (Unigen, Inc., priority 2012, published 2024)
# Assay: High fat diet induced obesity (DIO) mouse model
# Format: in vivo, C57CL/6J mice
# Conditions: for NSAH (sum): liver pathology; for Total Body Weight: DIO mice (Table 52); for Total Body Weight / Body Weight: in g (unit assumed)
# Experimental: C57CL/6J mice aged 4-6 weeks (Korea Research Institute of Bioscience & Biotechnology, Ohchang, Korea) were housed in Polycarbonate cages (five mice per cage) in a room with a 12 hr:12 hr light-dark cycle and an ambient temperature of 24° C. All the mice were fed a commercial chow diet for 1 week after arrival in the animal facility. Mice were then divided into normal and obesity groups and fed with normal diet (ND) and high fat diets (HFD) respectively. The HFD group was divided into multiple treatment groups: a high fat diet vehicle group (HFD), an orlistat (purchased as OTC drug Alli®) positive control treatment group (ORI, 40 mg/kg of animal weight, 2 times/day) and optionally a sibutramine positive control treatment group (10 mg/kg, 1 time/day). The HFD contained 340 g of fat/kg of HFD (310 g lard plus 30 g soybean oil; Harlan Laboratories, USA). The HFD was formulated to provide 60% of the total energy generated by the diet from fat by replacing carbohydrate energy with lard and soybean oil, whereas the normal diet (ND) group was fed a diet providing only 18% of the total diet energy from fat(Harlan Laboratories, USA).
# Body weight was measured once each week and feed intake was measured twice per week. At the end of the experimental period, following a 12 hr. fasting period, the animals were anesthetized with ether, and blood was drawn from the abdominal vein. Liver and kidney and adipose tissues (epididymal, retroperitoneal, perirenal adipose tissues) were removed from each animal, rinsed with physiological saline, and weighed. Serum concentrations of glucose, total cholesterol, triglycerides, and LDL-cholesterol were determined using automatic analyzer (INTEGRA 400, Roche, Germany). Statistical significance of test results was measured using the Student's t-test.
# [1] = DIO mice blood biochemistry, SIB 10 mg/kg, ORI 40 mg/kg, Mutamba extract 32 (G1) 1000 mg/kg, mean
# [2] = DIO mice blood biochemistry, SIB 10 mg/kg, ORI 40 mg/kg, Mutamba extract 33-2 G1 1000 mg/kg, mean
# [3] = DIO mice liver pathology score, SIB 10 mg/kg, ORI 40 mg/kg, Mutamba extract 32 (G1) 1000 mg/kg, mean
# [4] = DIO mice, SIB 10 mg/kg, ORI 40 mg/kg, Mutamba extract 32 (G1) 1000 mg/kg, mean
# [5] = DIO mice, SIB 10 mg/kg, ORI 40 mg/kg, Mutamba extract 33-2 G1 1000 mg/kg, mean
# [6] = DIO mice, combination (1:1) 2000 mg/kg twice a day, group mean
# [7] = liver pathology score, mice fed a high fat diet, Mutamba fractions 250 mg/kg oral 2 times per day, mean
# [8] = liver pathology score, mice fed a high fat diet, Mutamba fractions 250 mg/kg oral 2 times per day, mean (table printed twice)
# [9] = mice fed a high fat diet, Mutamba fractions 250 mg/kg oral 2 times per day, mean
# [10] = sibutramine 10 mg/kg, 1 time/day
# [11] = sibutramine 10 mg/kg, 1 time/day, listed as Sibutramine
# [12] = week 1, mice fed a high fat diet, Mutamba fractions 250 mg/kg oral 2 times per day, mean
# [13] = week 2, mice fed a high fat diet, Mutamba fractions 250 mg/kg oral 2 times per day, mean
# [14] = week 3, mice fed a high fat diet, Mutamba fractions 250 mg/kg oral 2 times per day, mean
# [15] = week 4, mice fed a high fat diet, Mutamba fractions 250 mg/kg oral 2 times per day, mean
# [16] = week 5, mice fed a high fat diet, Mutamba fractions 250 mg/kg oral 2 times per day, mean
# [17] = week 6, mice fed a high fat diet, Mutamba fractions 250 mg/kg oral 2 times per day, mean
# [18] = week 7, mice fed a high fat diet, Mutamba fractions 250 mg/kg oral 2 times per day, mean
# [19] = week 8, mice fed a high fat diet, Mutamba fractions 250 mg/kg oral 2 times per day, mean
smiles,measurement,setting,value
"CC(C)CC(N(C)C)C1(c2ccc(Cl)cc2)CCC1 (stereo not shown) [SIB, sibutramine]",ALT,[1],37.00 U/L
same,AST,[1],65.95 U/L
same,HDL-C,[1],68.73 mg/dL
same,LDL-C,[1],6.18 mg/dL
same,T-chol,[1],155.75 mg/dL
same,TG,[1],49.75 mg/dL
same,LDL-C,[2],5.26 mg/dL
same,T-chol,[2],158.60 mg/dL
same,TG,[2],46.60 mg/dL
same,Hepatocellular ballooning (0-2),[3],0.25
same,Lobular Inflammation (0-3),[3],0.50
same,Steatosis (0-3),[3],0.50
same,NASH (sum),"DIO mice liver pathology, sum of scores, SIB 10 mg/kg, ORI 40 mg/kg, Mutamba extract 32 (G1) 1000 mg/kg, mean",1.25
same,Weight Gain 2-week,"DIO mice, 2-week, Compositions 1, 2 1300 mg/kg/day, 3, 9 1700 mg/kg/day, orlistat 40 mg/kg 2 times/day, sibutramine 10 mg/kg 1 time/day",−1.40
same,Average Feed Intake 2-week,"DIO mice, 2-week, doses as in Example 76",2.87
same,Food Efficiency Ratio (FER) 2 weeks,"DIO mice, 2 weeks, Mean, Weight Gain (g/day)/Feed Intake (g/day)",−0.099
same,Weight Gain 7-week,"DIO mice, 7-week, Compositions 1, 2 1300 mg/kg/day, 3, 9 1700 mg/kg/day, orlistat 40 mg/kg 2 times/day, sibutramine 10 mg/kg 1 time/day",6.12
same,Average Feed Intake 7-week,"DIO mice, 7-week, doses as in Example 76",2.67
same,Food Efficiency Ratio (FER) 7 weeks,"DIO mice, 7 weeks, Mean, Weight Gain (g/day)/Feed Intake (g/day)",0.054
same,Food Efficiency Ratio (FER),"DIO mice, FER = body weight gain (g/day)/food intake (g/day), SIB 10 mg/kg, ORI 40 mg/kg, Mutamba extract 32 (G1) 1000 mg/kg, mean",0.008
same,Food Efficiency Ratio (FER),"DIO mice, FER = body weight gain (g/day)/food intake (g/day), SIB 10 mg/kg, ORI 40 mg/kg, Mutamba extract 33-2 G1 1000 mg/kg, mean",0.043
same,Average Body Weight Gain,[4],0.021 g/day
same,Average Food Intake,[4],2.724 g/day
same,Body Weight Gain,[5],0.114 g/day
same,Food Intake,[5],2.624 g/day
same,FER (Food efficiency ratio),"DIO mice, combination (1:1) 2000 mg/kg twice a day, FER = body weight gain/food intake",−0.014
same,Food Intake,[6],3.564 g/day
same,Weight Gain,[6],-0.051 g/day
same,Hepatocellular ballooning (0-2),[7],0.40
same,Lobular Inflammation (0-3),[7],1.60
same,Steatosis (0-3),[7],1.20
same,Hepatocellular ballooning (0-2),[8],0.40
same,Lobular Inflammation (0-3),[8],1.60
same,Steatosis (0-3),[8],1.20
same,NSAH (sum),"sum of scores, mice fed a high fat diet, Mutamba fractions 250 mg/kg oral 2 times per day, mean",3.20
same,NSAH (sum),"sum of scores, mice fed a high fat diet, Mutamba fractions 250 mg/kg oral 2 times per day, mean (table printed twice)",3.20
same,FER (Food efficiency ratio),"mice fed a high fat diet, FER = body weight gain (g/day)/food intake (g/day), Mutamba fractions 250 mg/kg oral 2 times per day, mean",0.043
same,Body Weight Gain,[9],0.114 g/day
same,Food Intake,[9],2.624 g/day
same,blood biochemistry parameters vs HFD group,[10],statistically significant decrease in LDL-cholesterol
same,body weight gain vs HFD group,[10],statistically significant decreases in body weight gain across all weeks of the study
same,liver pathology (NASH score) vs HFD group,[10],"statistically significant decreases in Steatosis, Lobular inflammation, Hepatocellular ballooning and NASH score"
same,total body weight vs HFD group,[10],"statistically significant decreases in total body weight from week 1, 2, 3 and 7"
same,"weight gain per day, food intake per day, food efficiency ratio (FER) vs HFD group",[10],average body weight gain per day and food efficiency ratio (FER) endpoints were significantly lowered
same,body weight gain vs HFD group,[11],did not
same,"weight gain per day, food intake per day, food efficiency ratio (FER) vs HFD group",[11],statistically significant reduction of average food intake after 7 weeks of treatment
same,"weight gain per day, food intake per day, food efficiency ratio (FER) vs HFD group","sibutramine 10 mg/kg, 1 time/day, listed as sibutramine",not statistically significant
same,Total Body Weight,"week 0, SIB 10 mg/kg",39.70
same,Body Weight,"week 0, mice fed a high fat diet, Mutamba fractions 250 mg/kg oral 2 times per day, mean",38.41
same,Body Weight Gain,"week 1, DIO mice, SIB 10 mg/kg, ORI 40 mg/kg, Mutamba extract 32 (G1) 1000 mg/kg/day oral, mean",−5.46
same,Body Weight Gain,"week 1, DIO mice, SIB 10 mg/kg, ORI 40 mg/kg, Mutamba extract 33-2 G1 1000 mg/kg, mean",−2.72
same,Weight Gain,"week 1, DIO mice, combination (1:1) 2000 mg/kg twice a day, group mean",−3.63
same,Weight Gain,"week 1, DIO mice, combination (10:1) 1100 mg/kg twice a day, group mean",−3.63
same,Total Body Weight,"week 1, SIB 10 mg/kg",34.24
same,Body Weight Gain,[12],−2.72
same,Body Weight,[12],35.69
same,Body Weight Gain,"week 2, DIO mice, SIB 10 mg/kg, ORI 40 mg/kg, Mutamba extract 32 (G1) 1000 mg/kg/day oral, mean",−4.84
same,Body Weight Gain,"week 2, DIO mice, SIB 10 mg/kg, ORI 40 mg/kg, Mutamba extract 33-2 G1 1000 mg/kg, mean",−2.39
same,Weight Gain,"week 2, DIO mice, combination (1:1) 2000 mg/kg twice a day, group mean",−5.37
same,Weight Gain,"week 2, DIO mice, combination (10:1) 1100 mg/kg twice a day, group mean",−5.37
same,Total Body Weight,"week 2, SIB 10 mg/kg",33.96
same,Body Weight Gain,[13],−2.39
same,Body Weight,[13],36.03
same,Body Weight Gain,"week 3, DIO mice, SIB 10 mg/kg, ORI 40 mg/kg, Mutamba extract 32 (G1) 1000 mg/kg/day oral, mean",−2.75
same,Body Weight Gain,"week 3, DIO mice, SIB 10 mg/kg, ORI 40 mg/kg, Mutamba extract 33-2 G1 1000 mg/kg, mean",−0.39
same,Weight Gain,"week 3, DIO mice, combination (1:1) 2000 mg/kg twice a day, group mean",−4.69
same,Weight Gain,"week 3, DIO mice, combination (10:1) 1100 mg/kg twice a day, group mean",−4.69
same,Total Body Weight,"week 3, SIB 10 mg/kg",36.05
same,Body Weight Gain,[14],−0.39
same,Body Weight,[14],38.02
same,Body Weight Gain,"week 4, DIO mice, SIB 10 mg/kg, ORI 40 mg/kg, Mutamba extract 32 (G1) 1000 mg/kg/day oral, mean",−2.17
same,Body Weight Gain,"week 4, DIO mice, SIB 10 mg/kg, ORI 40 mg/kg, Mutamba extract 33-2 G1 1000 mg/kg, mean",1.47
same,Weight Gain,"week 4, DIO mice, combination (1:1) 2000 mg/kg twice a day, group mean",−4.82
same,Weight Gain,"week 4, DIO mice, combination (10:1) 1100 mg/kg twice a day, group mean",−4.82
same,Total Body Weight,"week 4, SIB 10 mg/kg",36.64
same,Body Weight Gain,[15],1.47
same,Body Weight,[15],39.89
same,Body Weight Gain,"week 5, DIO mice, SIB 10 mg/kg, ORI 40 mg/kg, Mutamba extract 32 (G1) 1000 mg/kg/day oral, mean",−1.38
same,Body Weight Gain,"week 5, DIO mice, SIB 10 mg/kg, ORI 40 mg/kg, Mutamba extract 33-2 G1 1000 mg/kg, mean",2.54
same,Weight Gain,"week 5, DIO mice, combination (1:1) 2000 mg/kg twice a day, group mean",−4.25
same,Weight Gain,"week 5, DIO mice, combination (10:1) 1100 mg/kg twice a day, group mean",−4.25
same,Total Body Weight,"week 5, SIB 10 mg/kg",37.42
same,Body Weight Gain,[16],2.54
same,Body Weight,[16],40.95
same,Body Weight Gain,"week 6, DIO mice, SIB 10 mg/kg, ORI 40 mg/kg, Mutamba extract 32 (G1) 1000 mg/kg/day oral, mean",−0.27
same,Body Weight Gain,"week 6, DIO mice, SIB 10 mg/kg, ORI 40 mg/kg, Mutamba extract 33-2 G1 1000 mg/kg, mean",3.99
same,Weight Gain,"week 6, DIO mice, combination (1:1) 2000 mg/kg twice a day, group mean",−3.90
same,Weight Gain,"week 6, DIO mice, combination (10:1) 1100 mg/kg twice a day, group mean",−3.90
same,Total Body Weight,"week 6, SIB 10 mg/kg",38.54
same,Body Weight Gain,[17],3.99
same,Body Weight,[17],42.40
same,Body Weight Gain,"week 7, DIO mice, SIB 10 mg/kg, ORI 40 mg/kg, Mutamba extract 32 (G1) 1000 mg/kg/day oral, mean",−0.06
same,Body Weight Gain,"week 7, DIO mice, SIB 10 mg/kg, ORI 40 mg/kg, Mutamba extract 33-2 G1 1000 mg/kg, mean",5.15
same,Weight Gain,"week 7, DIO mice, combination (1:1) 2000 mg/kg twice a day, group mean",−2.27
same,Weight Gain,"week 7, DIO mice, combination (10:1) 1100 mg/kg twice a day, group mean",−2.27
same,Total Body Weight,"week 7, SIB 10 mg/kg",38.74
same,Body Weight Gain,[18],5.15
same,Body Weight,[18],43.57
same,Body Weight Gain,"week 8, DIO mice, SIB 10 mg/kg, ORI 40 mg/kg, Mutamba extract 32 (G1) 1000 mg/kg/day oral, mean",1.15
same,Body Weight Gain,"week 8, DIO mice, SIB 10 mg/kg, ORI 40 mg/kg, Mutamba extract 33-2 G1 1000 mg/kg, mean",6.27
same,Total Body Weight,"week 8, SIB 10 mg/kg",39.95
same,Body Weight Gain,[19],6.27
same,Body Weight,[19],44.69
